Results taken from the Kinase Knowledgebase extract (Sharma et al. 2016).
pIC50: −log10 of the molar value.

The molecules below were run against EGFR (human) (UniProt P00533). Conditions: a431.
EGFR (human), sequence (P00533 whole entry, looked up): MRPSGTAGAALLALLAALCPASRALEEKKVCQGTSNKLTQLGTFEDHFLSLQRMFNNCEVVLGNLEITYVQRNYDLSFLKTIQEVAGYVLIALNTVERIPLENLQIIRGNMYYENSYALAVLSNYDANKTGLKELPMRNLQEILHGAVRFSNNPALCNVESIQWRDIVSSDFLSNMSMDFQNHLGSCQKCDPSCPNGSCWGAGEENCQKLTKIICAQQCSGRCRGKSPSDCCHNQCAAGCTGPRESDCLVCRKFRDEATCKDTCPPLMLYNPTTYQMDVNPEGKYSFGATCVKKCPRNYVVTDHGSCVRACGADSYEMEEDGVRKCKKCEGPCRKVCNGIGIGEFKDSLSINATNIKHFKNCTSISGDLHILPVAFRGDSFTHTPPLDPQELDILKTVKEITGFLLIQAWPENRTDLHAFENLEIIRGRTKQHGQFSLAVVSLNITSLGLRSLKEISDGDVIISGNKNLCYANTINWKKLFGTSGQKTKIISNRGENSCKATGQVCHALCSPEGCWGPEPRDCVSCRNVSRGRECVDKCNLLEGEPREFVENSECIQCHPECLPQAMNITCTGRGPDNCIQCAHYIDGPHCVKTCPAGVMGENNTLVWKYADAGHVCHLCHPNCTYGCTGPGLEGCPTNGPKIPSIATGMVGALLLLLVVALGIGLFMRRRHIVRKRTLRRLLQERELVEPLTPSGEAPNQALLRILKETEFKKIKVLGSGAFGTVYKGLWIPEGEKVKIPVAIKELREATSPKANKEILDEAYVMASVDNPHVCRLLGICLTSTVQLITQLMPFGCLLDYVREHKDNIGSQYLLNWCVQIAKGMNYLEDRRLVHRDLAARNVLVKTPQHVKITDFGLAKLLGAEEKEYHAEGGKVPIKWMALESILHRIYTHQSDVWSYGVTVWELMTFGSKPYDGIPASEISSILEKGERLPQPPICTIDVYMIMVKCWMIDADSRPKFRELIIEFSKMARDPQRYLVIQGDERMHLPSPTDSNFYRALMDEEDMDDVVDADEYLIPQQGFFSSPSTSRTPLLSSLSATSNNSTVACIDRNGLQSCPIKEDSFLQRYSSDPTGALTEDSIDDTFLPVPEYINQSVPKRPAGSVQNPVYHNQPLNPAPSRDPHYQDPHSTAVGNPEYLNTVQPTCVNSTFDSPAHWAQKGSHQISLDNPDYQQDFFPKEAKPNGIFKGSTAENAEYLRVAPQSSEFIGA
`CN1CCN(C(=O)Cc2ccc3c(c2)sc2ncnc(Nc4ccc5c(cnn5Cc5cccc(F)c5)c4)c23)CC1` gave a pIC50 of at least 5.30. For `CN(C)[C@@H]1CCN(C(=O)Cc2ccc3c(c2)sc2ncnc(Nc4ccc(OCc5cscn5)c(Cl)c4)c23)C1`, the pIC50 was at least 5.30. For `CN(C)[C@H]1CCN(C(=O)/C=C/c2ccc3c(c2)sc2ncnc(Nc4ccc(OCc5cccc(F)c5)c(Cl)c4)c23)C1`, the pIC50 was at least 5.30. `O=C(Cc1ccc2c(c1)sc1ncnc(Nc3ccc(OCc4cccc(F)c4)c(Cl)c3)c12)N1CCNCC1` was tested, and the pIC50 was at least 5.30. In the case of `COCCN(CCOC)C(=O)Cc1ccc2c(c1)sc1ncnc(Nc3ccc(OCc4ccccn4)c(Cl)c3)c12`, the pIC50 was at least 5.30. In the case of `OCCc1ccc2c(c1)sc1ncnc(Nc3ccc(OCc4ccccn4)c(Cl)c3)c12`, the pIC50 was at least 5.30. For `Fc1cccc(COc2ccc(Nc3ncnc4sc5cc(OCCCN6CCOCC6)ccc5c34)cc2Cl)c1`, the pIC50 was at least 5.30. In the case of `OCCNCCc1ccc2c(c1)sc1ncnc(Nc3ccc(OCc4cccc(F)c4)c(Cl)c3)c12`, the pIC50 was at least 5.30. In the case of `O=C(Cc1ccc2c(c1)sc1ncnc(Nc3ccc(OCc4cccc(F)c4)c(Cl)c3)c12)NCCN1CCOCC1`, the pIC50 was at least 5.30. Molecule `OC[C@@H](O)COc1ccc2c(c1)sc1ncnc(Nc3ccc(OCc4cccc(F)c4)c(Cl)c3)c12` has a pIC50 of at least 5.30. `CN1CCN(C(=O)Cc2ccc3c(c2)sc2ncnc(Nc4ccc(OCc5cscn5)c(Cl)c4)c23)CC1` gave a pIC50 of at least 5.30. `COC(=O)/C=C/c1ccc2c(c1)sc1ncnc(Nc3ccc(OCc4cccc(F)c4)c(Cl)c3)c12` was tested, and the pIC50 was at least 5.30. For `Fc1cccc(COc2ccc(Nc3ncnc4sc5cc(CCN6CCSCC6)ccc5c34)cc2Cl)c1`, the pIC50 was at least 5.30. `OCC(O)c1ccc2c(c1)sc1ncnc(Nc3ccc(OCc4cccc(F)c4)c(Cl)c3)c12` (centres undefined) showed a pIC50 of at least 5.30. `Clc1cc(Nc2ncnc3sc4cc(CCBr)ccc4c23)ccc1OCc1ccccn1` was tested, and the pIC50 was at least 5.30. In the case of `CN1CCN(CCc2ccc3c(c2)sc2ncnc(Nc4ccc(OCc5ccccn5)c(Cl)c4)c23)CC1`, the pIC50 was at least 5.30. `CN(C)[C@H]1CCN(CCc2ccc3c(c2)sc2ncnc(Nc4ccc(OCc5cccc(F)c5)c(Cl)c4)c23)C1` gave a pIC50 of at least 5.30. For `COCCNCCc1ccc2c(c1)sc1ncnc(Nc3ccc(OCc4cccc(F)c4)c(Cl)c3)c12`, the pIC50 was at least 5.30. `OCCc1ccc2c(c1)sc1ncnc(Nc3ccc(OCc4cccc(F)c4)c(Cl)c3)c12` showed a pIC50 of at least 5.30. For `OCC(O)c1ccc2c(c1)sc1ncnc(Nc3ccc(OCc4ccccn4)c(Cl)c3)c12` (centres undefined), the pIC50 was at least 5.30. With `CO[C@H]1CCN(CCc2ccc3c(c2)sc2ncnc(Nc4ccc(OCc5cccc(F)c5)c(Cl)c4)c23)C1` the pIC50 was at least 5.30. In the case of `COC[C@H]1CCCN1CCc1ccc2c(c1)sc1ncnc(Nc3ccc(OCc4cccc(F)c4)c(Cl)c3)c12`, the pIC50 was at least 5.30. In the case of `OCC(O)c1ccc2c(c1)sc1ncnc(Nc3ccc4c(cnn4Cc4cccc(F)c4)c3)c12` (centres undefined), the pIC50 was at least 5.30. In the case of `CN1CCN(C(=O)/C=C/c2ccc3c(c2)sc2ncnc(Nc4ccc(OCc5cccc(F)c5)c(Cl)c4)c23)CC1`, the pIC50 was at least 5.30. `OC[C@H](O)c1ccc2c(c1)sc1ncnc(Nc3ccc(OCc4cccc(F)c4)c(Cl)c3)c12` gave a pIC50 of at least 5.30. `CN(C)CCNC(=O)Cc1ccc2c(c1)sc1ncnc(Nc3ccc4c(cnn4Cc4cccc(F)c4)c3)c12` showed a pIC50 of at least 5.30. Molecule `CCN1CCN(C(=O)/C=C/c2ccc3c(c2)sc2ncnc(Nc4ccc(OCc5cccc(F)c5)c(Cl)c4)c23)CC1` has a pIC50 of at least 5.30. In the case of `CS(=O)(=O)CCNC(=O)CCc1ccc2c(c1)sc1ncnc(Nc3ccc(OCc4cccc(F)c4)c(Cl)c3)c12`, the pIC50 was at least 5.30. Molecule `Fc1cccc(COc2ccc(Nc3ncnc4sc5cc(CCN6CCCCC6)ccc5c34)cc2Cl)c1` has a pIC50 of at least 5.30. For `OCCc1ccc2c(c1)sc1ncnc(Nc3ccc4c(cnn4Cc4ccccn4)c3)c12`, the pIC50 was at least 5.30. `Fc1cccc(COc2ccc(Nc3ncnc4sc5cc(CCN6CCCC6)ccc5c34)cc2Cl)c1` gave a pIC50 of at least 5.30. `OC[C@@H](O)c1ccc2c(c1)sc1ncnc(Nc3ccc4c(cnn4Cc4cccc(F)c4)c3)c12` was tested, and the pIC50 was at least 5.30. `O=C(/C=C/c1ccc2c(c1)sc1ncnc(Nc3ccc(OCc4cccc(F)c4)c(Cl)c3)c12)N1CCOCC1` was tested, and the pIC50 was at least 5.30. `CCNCCc1ccc2c(c1)sc1ncnc(Nc3ccc(OCc4ccccn4)c(Cl)c3)c12` gave a pIC50 of at least 5.30. `OCCc1ccc2c(c1)sc1ncnc(Nc3ccc4c(cnn4Cc4cccc(F)c4)c3)c12` was tested, and the pIC50 was at least 5.30. Molecule `Fc1cccc(Cn2ncc3cc(Nc4ncnc5sc6cc(N7CCNCC7)ccc6c45)ccc32)c1` has a pIC50 of at least 5.30. Molecule `NS(=O)(=O)OCCc1ccc2c(c1)sc1ncnc(Nc3ccc(OCc4ccccn4)c(Cl)c3)c12` has a pIC50 of at least 5.30. `O=C(Cc1ccc2c(c1)sc1ncnc(Nc3ccc4c(cnn4Cc4cccc(F)c4)c3)c12)NC1CN2CCC1CC2` (centres undefined) was tested, and the pIC50 was at least 5.30. `OC[C@H](O)c1ccc2c(c1)sc1ncnc(Nc3ccc4c(cnn4Cc4cccc(F)c4)c3)c12` showed a pIC50 of at least 5.30. With `OCC(CO)c1ccc2c(c1)sc1ncnc(Nc3ccc(OCc4cccc(F)c4)c(Cl)c3)c12` the pIC50 was at least 5.30. For `OCC(O)C(O)c1ccc2c(c1)sc1ncnc(Nc3ccc(OCc4cccc(F)c4)c(Cl)c3)c12` (centres undefined), the pIC50 was at least 5.30. Molecule `OC[C@H](O)COc1ccc2c(c1)sc1ncnc(Nc3ccc(OCc4cccc(F)c4)c(Cl)c3)c12` has a pIC50 of at least 5.30. Work on `OC[C@H](O)[C@@H](O)c1ccc2c(c1)sc1ncnc(Nc3ccc(OCc4cccc(F)c4)c(Cl)c3)c12` yielded a pIC50 of at least 5.30. With `CN(C)CCNC(=O)CCc1ccc2c(c1)sc1ncnc(Nc3ccc(OCc4cccc(F)c4)c(Cl)c3)c12` the pIC50 was at least 5.30. With `CS(=O)(=O)CCNCCc1ccc2c(c1)sc1ncnc(Nc3ccc(OCc4ccccn4)c(Cl)c3)c12` the pIC50 was at least 5.30. With `COCCN(CCOC)CCc1ccc2c(c1)sc1ncnc(Nc3ccc(OCc4cccc(F)c4)c(Cl)c3)c12` the pIC50 was at least 5.30. With `CN(C)[C@H]1CCN(C(=O)Cc2ccc3c(c2)sc2ncnc(Nc4ccc(OCc5cscn5)c(Cl)c4)c23)C1` the pIC50 was at least 5.30. For `Fc1cccc(COc2ccc(Nc3ncnc4sc5cc(CCBr)ccc5c34)cc2Cl)c1`, the pIC50 was at least 5.30. `CS(=O)(=O)CCNC(=O)Cc1ccc2c(c1)sc1ncnc(Nc3ccc4c(cnn4Cc4cccc(F)c4)c3)c12` was tested, and the pIC50 was at least 5.30. Work on `OC[C@@H](O)c1ccc2c(c1)sc1ncnc(Nc3ccc(OCc4cccc(F)c4)c(Cl)c3)c12` yielded a pIC50 of at least 5.30. `CN(C)[C@H]1CCN(C(=O)CCc2ccc3c(c2)sc2ncnc(Nc4ccc(OCc5cccc(F)c5)c(Cl)c4)c23)C1` was tested, and the pIC50 was at least 5.30. Work on `O=C(Cc1ccc2c(c1)sc1ncnc(Nc3ccc(OCc4cccc(F)c4)c(Cl)c3)c12)N1CCOCC1` yielded a pIC50 of at least 5.30. In the case of `O=C(Cc1ccc2c(c1)sc1ncnc(Nc3ccc(OCc4cccc(F)c4)c(Cl)c3)c12)NCCOCCO`, the pIC50 was at least 5.30. `CN1CCN(CCc2ccc3c(c2)sc2ncnc(Nc4ccc(OCc5cccc(F)c5)c(Cl)c4)c23)CC1` gave a pIC50 of at least 5.30. Molecule `OCCN(CCO)CCc1ccc2c(c1)sc1ncnc(Nc3ccc(OCc4cccc(F)c4)c(Cl)c3)c12` has a pIC50 of at least 5.30. For `COCCNCCc1ccc2c(c1)sc1ncnc(Nc3ccc(OCc4ccccn4)c(Cl)c3)c12`, the pIC50 was at least 5.30. In the case of `CN(C)[C@H]1CCN(C(=O)Cc2ccc3c(c2)sc2ncnc(Nc4ccc5c(cnn5Cc5cccc(F)c5)c4)c23)C1`, the pIC50 was at least 5.30. Work on `OC[C@@H](O)[C@H](O)c1ccc2c(c1)sc1ncnc(Nc3ccc(OCc4cccc(F)c4)c(Cl)c3)c12` yielded a pIC50 of at least 5.30. Work on `Fc1cccc(COc2ccc(Nc3ncnc4sc5cc(CCN6CCNCC6)ccc5c34)cc2Cl)c1` yielded a pIC50 of at least 5.30. With `Fc1cccc(COc2ccc(Nc3ncnc4sc5cc(OCCN6CCCC6)ccc5c34)cc2Cl)c1` the pIC50 was at least 5.30. With `COCCN1CCN(CCc2ccc3c(c2)sc2ncnc(Nc4ccc(OCc5cccc(F)c5)c(Cl)c4)c23)CC1` the pIC50 was at least 5.30. `Fc1cccc(Cn2ncc3cc(Nc4ncnc5sc6cc(CCN7CCOCC7)ccc6c45)ccc32)c1` gave a pIC50 of at least 5.30. For `CN1CCN(c2ccc3c(c2)sc2ncnc(Nc4ccc(OCc5ccccn5)c(Cl)c4)c23)CC1`, the pIC50 was at least 5.30. `COC[C@@H]1CCCN1C(=O)Cc1ccc2c(c1)sc1ncnc(Nc3ccc(OCc4ccccn4)c(Cl)c3)c12` was tested, and the pIC50 was at least 5.30. For `CN1CCN(C(=O)Cc2ccc3c(c2)sc2ncnc(Nc4ccc(OCc5cccc(F)c5)c(Cl)c4)c23)CC1`, the pIC50 was at least 5.30. Work on `CN1CCN(CCc2ccc3c(c2)sc2ncnc(Nc4ccc5c(cnn5Cc5cccc(F)c5)c4)c23)CC1` yielded a pIC50 of at least 5.30. `OC[C@H](O)COc1ccc2c(c1)sc1ncnc(Nc3ccc(OCc4ccccn4)c(Cl)c3)c12` showed a pIC50 of at least 5.30. `O=C(Cc1ccc2c(c1)sc1ncnc(Nc3ccc(OCc4ccccn4)c(Cl)c3)c12)N1CCC[C@@H]1CO` showed a pIC50 of at least 5.30. `Fc1cccc(COc2ccc(Nc3ncnc4sc5cc(OCCN6CCOCC6)ccc5c34)cc2Cl)c1` gave a pIC50 of at least 5.30.
